In patent publication US20110182850A1, “ORGANIC COMPOUNDS AND THEIR USES” (priority 2009, published 2011):

What follows are compounds tested against T1, HCV NS3-4A serine protease (full-length NS3-4A protein, genotype 1a, strain HCV-1) (Hepatitis C virus genotype 1a, UniProt P26664) (assay: HCV NS3-4A protease assay). Settings: Protease IC50.
T1 construct: using the full-length NS3-4A protein (genotype 1a, strain HCV-1)
T1 sequence (P26664 1658-1711): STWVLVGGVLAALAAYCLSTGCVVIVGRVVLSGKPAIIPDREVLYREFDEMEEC
T1 sequence (P26664 1027-1657): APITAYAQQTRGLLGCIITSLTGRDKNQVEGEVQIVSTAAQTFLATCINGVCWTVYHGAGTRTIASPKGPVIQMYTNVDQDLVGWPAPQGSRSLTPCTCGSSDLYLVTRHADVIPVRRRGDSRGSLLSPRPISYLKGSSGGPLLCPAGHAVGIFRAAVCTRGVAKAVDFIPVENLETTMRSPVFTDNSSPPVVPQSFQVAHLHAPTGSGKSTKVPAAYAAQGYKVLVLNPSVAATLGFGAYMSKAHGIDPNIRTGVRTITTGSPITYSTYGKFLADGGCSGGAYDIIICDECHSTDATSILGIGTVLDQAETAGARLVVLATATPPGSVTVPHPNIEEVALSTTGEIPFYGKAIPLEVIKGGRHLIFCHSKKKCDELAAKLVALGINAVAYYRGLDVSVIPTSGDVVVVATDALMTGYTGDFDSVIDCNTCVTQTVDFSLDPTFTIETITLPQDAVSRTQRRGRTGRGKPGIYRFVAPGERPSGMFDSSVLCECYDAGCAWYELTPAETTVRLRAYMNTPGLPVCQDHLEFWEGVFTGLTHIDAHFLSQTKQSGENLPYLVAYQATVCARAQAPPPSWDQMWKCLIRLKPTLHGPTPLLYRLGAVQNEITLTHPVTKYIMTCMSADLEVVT
Assay type: biochemical
Protocol: The inhibitory activity of certain compounds of Table A against HCV NS3-4A serine protease is determined in a homogenous assay using the full-length NS3-4A protein (genotype 1a, strain HCV-1) and a commercially available internally-quenched fluorogenic peptide substrate as described by Taliani, M., et al. 1996 Anal. Biochem. 240:60-67, which is incorporated by reference in its entirety.
C=C[C@H]1C[C@@]1(NC(=O)[C@@H]1C[C@@]2(CN1C(=O)[C@@H](NC(=O)[C@@H](NC(=O)c1nccn1C)C1CCCCC1)C(C)(C)C)C(C)(C)C21CCC1)C(=O)NS(=O)(=O)C1CC1 [Compound 103, (5R,8S)-7-{(2S)-2-[(cyclohexyl{[(1-methyl-1H-imidazol-2-yl)carbonyl]amino}acetyl)amino]-3,3-dimethylbutanoyl}-N-{(1R,2S)-1-[(cyclopropylsulfonyl)carba-moyl]-2-vinylcyclopropyl}-10,10-dimethyl-7-azadispiro[3.0.4.1]decane-8-carboxamide] showed an IC50 of 1.5 nM.
For C=C[C@@H]1C[C@]1(NC(=O)[C@@H]1C[C@@]2(CN1C(=O)[C@@H](NC(=O)[C@@H](NC(=O)[C@@H]1CCCCN1C(C)C)C1CCCCC1)C(C)(C)C)C(C)(C)C21CCC1)C(=O)NS(=O)(=O)C1CCCC1 [Compound 80, (5R,8S)-7-[(2S)-2-{[(2S)-2-cyclohexyl-2-({[(2S)-1-isopropylpiperidin-2-yl]carbonyl}amino)acetyl]amino}-3,3-dimethylbutanoyl]-N-{(1R,2S)-1-[(cyclopentylsulfonyl)carbamoyl]-2-vinylcyclopropyl}-10,10-dimethyl-7-azadispiro[3.0.4.1]decane-8-carboxamide], the IC50 was 10 nM.
C=C[C@@H]1C[C@]1(NC(=O)[C@@H]1C[C@@]2(CN1C(=O)C(NC(=O)[C@@H](NC(=O)c1cnccn1)C1CCCCC1)C(C)(C)C)C(C)(C)C21CCC1)C(=O)NS(=O)(=O)C1CC1 (stereo partly drawn) [Compound 87, (5R,8S)-7-[2-({(2S)-2-cyclohexyl-2-[(pyrazin-2-ylcarbonyl)amino]acetyl}amino)-3,3-dimethylbutanoyl]-N-{(1R,2S)-1-[(cyclopropylsulfonyl)carba-moyl]-2-vinylcyclopropyl}-10,10-dimethyl-7-azadispiro[3.0.4.1]decane-8-carboxamide] gave an IC50 of 2.5 nM.
In the case of C=C[C@@H]1C[C@]1(NC(=O)[C@@H]1C[C@@]2(CN1C(=O)[C@@H](NC(=O)[C@@H](NC(=O)c1cocn1)C1CCCCC1)C(C)(C)C)C(C)(C)C21CCC1)C(=O)NS(=O)(=O)C1CC1 [Compound 112, (5R,8S)-7-[(2S)-2-({(2S)-2-cyclohexyl-2-[(1,3-oxazol-4-ylcarbonyl)amino]acetyl}amino)-3,3-dimethylbutanoyl]-N-{(1R,2S)-1-[(cyclopropylsulfonyl)carba-moyl]-2-vinylcyclopropyl}-10,10-dimethyl-7-azadispiro[3.0.4.1]decane-8-carboxamide], the IC50 is reported as 1.5 nM.
With C=C[C@@H]1C[C@]1(NC(=O)[C@@H]1C[C@@]2(CN1C(=O)C(NC(=O)[C@@H](NC(=O)OC(C)(C)C)C(C)(C)C)C(C)(C)C)C(C)(C)C21CCC1)C(=O)NS(=O)(=O)c1ccccc1 (stereo partly drawn) [Compound 5, tert-butyl {(1S)-1-[(1-{[(5R,8S)-10,10-dimethyl-8-({(1R,2S)-1-[(phenylsulfonyl)carbamoyl]-2-vinylcyclopropyl}carbamoyl)-7-azadispiro[3.0.4.1]dec-7-yl]carbonyl}-2,2-dimethylpropyl)carbamoyl]-2,2-dimethylpropyl}carbamate] the IC50 was 1950 nM.
In the case of C=C[C@@H]1C[C@]1(NC(=O)[C@@H]1C[C@@]2(CN1C(=O)[C@@H](NC(=O)[C@@H](NC(=O)c1cccnc1)C1CCCCC1)C(C)(C)C)C(C)(C)C21CCC1)C(=O)NS(=O)(=O)C1CC1 [Compound 95, (5R,8S)-7-[(2S)-2-({(2S)-2-cyclohexyl-2-[(pyridin-3-ylcarbonyl)amino]acetyl}amino)-3,3-dimethylbutanoyl]-N-{(1R,2S)-1-[(cyclopropylsulfonyl)carba-moyl]-2-vinylcyclopropyl}-10,10-dimethyl-7-azadispiro[3.0.4.1]decane-8-carboxamide], the IC50 is reported as 0.9 nM.
C=C[C@@H]1C[C@]1(NC(=O)[C@@H]1C[C@@]2(CN1C(=O)[C@@H](NC(=O)[C@@H](NC(=O)c1ncccn1)C1CCCCC1)C(C)(C)C)C(C)(C)C21CCC1)C(=O)NS(=O)(=O)C1CC1 [Compound 117, (5R,8S)-7-[(2S)-2-({(2S)-2-cyclohexyl-2-[(pyrimidin-2-ylcarbonyl)amino]acetyl}amino)-3,3-dimethylbutanoyl]-N-{(1R,2S)-1-[(cyclopropylsulfonyl)carba-moyl]-2-vinylcyclopropyl}-10,10-dimethyl-7-azadispiro[3.0.4.1]decane-8-carboxamide] gave an IC50 of 8 nM.
C=C[C@@H]1C[C@]1(NC(=O)[C@@H]1C[C@@]2(CN1C(=O)[C@@H](NC(=O)[C@@H](NC(=O)[C@@H]1CCCN1C(C)C)C1CCCCC1)C(C)(C)C)C(C)(C)C21CCC1)C(=O)NS(=O)(=O)C1(C)CC1 [Compound 72, (5R,8S)-7-[(2S)-2-{[(2S)-2-cyclohexyl-2-({[(2S)-1-isopropylpyrrolidin-2-yl]carbonyl}amino)acetyl]amino}-3,3-dimethylbutanoyl]-10,10-dimethyl-N-[(1R,2S)-1-{[(1-methylcyclopropyl)sulfonyl]carbamoyl}-2-vinylcyclopropyl]-7-azadispiro[3.0.4.1]decane-8-carboxamide] was tested, and the IC50 was 2 nM.
C=C[C@@H]1C[C@]1(NC(=O)[C@@H]1C[C@@]2(CN1C(=O)[C@@H](NC(=O)[C@@H]1CCCCCCCN3CCCC[C@H]3C(=O)N1)C(C)(C)C)C(C)(C)C21CCC1)C(=O)NS(=O)(=O)C1CC1 [Compound 38, (5R,8S)-N-{(1R,2S)-1-[(cyclopropylsulfonyl)carba-moyl]-2-vinylcyclopropyl}-7-[(2S)-3,3-dimethyl-2-({[(3S,15aS)-1-oxotetradecahydro-2H-pyrido[1,2-a][1,4]diazacyclododecin-3-yl]carbonyl}amino)butanoyl]-10,10-dimethyl-7-azadispiro[3.0.4.1]decane-8-carboxamide] was tested, and the IC50 was 8 nM.
Compound C=C[C@H]1C[C@@]1(NC(=O)[C@@H]1C[C@@]2(CN1C(=O)[C@@H](NC(=O)[C@@H](NC(=O)c1ccccc1N(C)C)C(C)(C)C)C(C)(C)C)C(C)(C)C21CCC1)C(=O)NS(=O)(=O)C1CC1 [Compound 130, (5R,8S)-N-{(1S,2R)-1-[(cyclopropylsulfonyl)carba-moyl]-2-vinylcyclopropyl}-7-[(2S)-2-{[(2S)-2-{[2-(dimethylamino)benzoyl]amino}-3,3-dimethylbutanoyl]amino}-3,3-dimethylbutanoyl]-10,10-dimethyl-7-azadispiro[3.0.4.1]decane-8-carboxamide] has an IC50 of 5.5 nM.
C=C[C@@H]1C[C@]1(NC(=O)[C@@H]1C[C@@]2(CN1C(=O)[C@@H](NC(=O)[C@@H](NC(=O)C(C)(C)N1CCCCC1)C(C)(C)C)C(C)(C)C)C(C)(C)C21CCC1)C(=O)NS(=O)(=O)C1CC1 [Compound 119, (5R,8S)-N-{(1R,2S)-1-[(cyclopropylsulfonyl)carba-moyl]-2-vinylcyclopropyl}-7-[(2S)-2-({(2S)-3,3-dimethyl-2-[(2-methyl-2-piperidin-1-ylpropanoyl)amino]butanoyl}amino)-3,3-dimethylbutanoyl]-10,10-dimethyl-7-azadispiro[3.0.4.1]decane-8-carboxamide] gave an IC50 of 3.5 nM.
C=C[C@H]1C[C@@]1(NC(=O)C1C[C@@]2(CN1C(=O)[C@@H](NC(=O)[C@@H](NC(=O)C1CCN1C(C)(C)C)C(C)(C)C)C(C)(C)C)C(C)(C)C21CCC1)C(=O)NS(=O)(=O)C1CC1 (stereo partly drawn) [Compound 123, (5R)-7-[(2S)-2-{[(2S)-2-{[(1-tert-butylazetidin-2-yl)carbonyl]amino}-3,3-dimethylbutanoyl]amino}-3,3-dimethylbutanoyl]-N-{(1S,2R)-1-[(cyclopropylsulfonyl)carba-moyl]-2-vinylcyclopropyl}-10,10-dimethyl-7-azadispiro[3.0.4.1]decane-8-carboxamide] gave an IC50 of 6 nM.
With C=C[C@@H]1C[C@]1(NC(=O)[C@@H]1C[C@@]2(CN1C(=O)[C@@H](NC(=O)[C@@H](NC(=O)C1CCCCN1C(C)C)C(C)(C)C)C(C)(C)C)C(C)(C)C21CCC1)C(=O)NS(=O)(=O)C(C)(C)C (stereo partly drawn) [Compound 93, (5R,8S)-N-{(1R,2S)-1-[(tert-butylsulfonyl)carbamoyl]-2-vinylcyclopropyl}-7-[(2S)-2-{[(2S)-2-{[(1-isopropylpiperidin-2-yl)carbonyl]amino}-3,3-dimethylbutanoyl]amino}-3,3-dimethylbutanoyl]-10,10-dimethyl-7-azadispiro[3.0.4.1]decane-8-carboxamide] the IC50 was 8 nM.
CC(C)(C)[C@H](NC(=O)[C@@H](NC(=O)C1CCCCN1CCF)C1CCCCC1)C(=O)N1C[C@]2(C[C@H]1C(=O)N[C@]1(C(=O)NS(=O)(=O)C3CC3)CC=CCC1)C(C)(C)C21CCC1 (stereo partly drawn) [Compound 27, (5R,8S)-7-[(2S)-2-{[(2S)-2-cyclohexyl-2-({[1-(2-fluoroethyl)piperidin-2-yl]carbonyl}amino)acetyl]amino}-3,3-dimethylbutanoyl]-N-{(1S)-1-[(cyclopropylsulfonyl)carba-moyl]cyclohex-3-en-1-yl}-10,10-dimethyl-7-azadispiro[3.0.4.1]decane-8-carboxamide] showed an IC50 of 2850 nM.

Same assay, conditions: read-out: Protease IC50
In the case of “(5R,8S)-7-[(2S)-2-{[{[(5- chloro-1H-indol-2- yl)carbonyl]amino}(cyclohex- yl)acetyl]amino}-3,3- dimethylbutanoyl]-N- {(1R,2S)-1- [(cyclopropylsulfonyl)carba- moyl]-2-vinylcyclopropyl}- 10,10-dimethyl-7- azadispiro[3.0.4.1]decane-8- carboxamide [Compound 129]”, the IC50 is reported as 15 nM.
With C=C[C@@H]1C[C@]1(NC(=O)[C@@H]1C[C@@]2(CN1C(=O)[C@@H](NC(=O)N[C@H](CC(=O)N1CCOCC1)C(C)(C)C)C(C)(C)C)C(C)(C)C21CCC1)C(=O)NS(=O)(=O)C1CC1 [Compound 34, (5R,8S)-N-{(1R,2S)-1-[(cyclopropylsulfonyl)carba-moyl]-2-vinylcyclopropyl}-7-[(2S)-2-({[(1R)-2,2-dimethyl-1-(2-morpholin-4-yl-2-oxoethyl)propyl]carbamoyl}amino)-3,3-dimethylbutanoyl]-10,10-dimethyl-7-azadispiro[3.0.4.1]decane-8-carboxamide] the IC50 was 2150 nM.
